Test results from patent US20110003866A1, “NOVEL 2-DIMETHYLAMINO-3-AMIDO-6-AMINO-PYRIDINE DERIVATIVES USEFUL AS POTASSIUM CHANNEL ACTIVATORS” (priority 2007, published 2011).

These molecules were tested against T1, human Kv72+3 channels (Homo sapiens, UniProt O43525+O43526) (assay: patch-clamp, HEK293 cell lines stably expressing human Kv7.2+3 channels). Conditions: conc. 0.03 μM, −30 mV, 20 ms; current relative to baseline current defined as 100%.
T1 construct: expressed in transfected cells; host or cells: HEK293
Assay type: cell-based
Text: The effect obtained by these channel activators is described as a percentage increase in baseline current at a given concentration. The baseline current is defined as 100%, and an increase in current is expressed relative to this, i.e. an increase from 1 nA to 1.2 nA is reported as 120%.

Row | SMILES | IK (%)
1 | CN(C)c1nc(NCc2ccc(F)cc2)ccc1NC(=O)Cc1ccc(F)c(F)c1 [Compound 1, N-[2-Dimethylamino-6-(4-fluoro-benzylamino)-pyridin-3-yl]-2-(3,4-difluoro-phenyl)-acetamide] | 215
2 | CN(C)c1nc(NCc2ccc(F)cc2)ccc1NC(=O)Cc1ccc(C(F)(F)F)c(F)c1 [Compound 3, N-[2-Dimethylamino-6-(4-fluoro-benzylamino)-pyridin-3-yl]-2-(3-fluoro-4-trifluoromethyl-phenyl)-acetamide] | 162
3 | CN(C)c1nc(NCc2ccc(F)cc2)ccc1NC(=O)CCc1cccc(F)c1 [Compound 5, N-[2-Dimethylamino-6-(4-fluoro-benzylamino)-pyridin-3-yl]-3-(3-fluoro-phenyl)-propionamide] | 174
4 | CN(C)c1nc(NCc2ccc(F)cc2)ccc1NC(=O)CC(C)(C)C [Compound 8, N-[2-Dimethylamino-6-(4-fluoro-benzylamino)-pyridin-3-yl]-3,3-dimethyl-butyramide] | 233
